Experimental data reported in PubChem BioAssay AID248 (DTP/NCI, 2004).
Values joined by “and” are separate entries in the source; they are usually repeats but may differ in a detail not shown here. Equal entries are not always repeated. Toxic doses and inconclusive results are not listed. Rule as the data show it: active = T/C of 150% or more; inactive = T/C below 125%.

Tested on: L1210 leukemia ip in BDF1 mice, survival T/C
Assay: NCI In Vivo Anticancer Drug Screen. Data for tumor model L1210 Leukemia (intraperitoneal) in B6D2F1 (BDF1) mice
Conditions: endpoint: mean survival time, higher = longer survival
Method in brief: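 Value reflects the ratio of survival in compound-treated mice to survival in vehicle-treated controls, with both groups carrying the same transplanted tumor.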

[1] = dose: 25.0 mg/kg/injection, schedule: Q04DX003 (ip), vehicle: saline
[2] = dose: 50.0 mg/kg/injection, schedule: Q01DX001 (ip), vehicle: saline
[3] = dose: 50.0 mg/kg/injection, schedule: Q01DX009 (ip), vehicle: saline
[4] = dose: 100.0 mg/kg/injection, schedule: Q01DX009 (ip), vehicle: saline
[5] = dose: 100.0 mg/kg/injection, schedule: Q04DX003 (ip), vehicle: saline
[6] = dose: 200.0 mg/kg/injection, schedule: Q01DX009 (ip), vehicle: saline
[7] = dose: 200.0 mg/kg/injection, schedule: Q04DX003 (ip), vehicle: saline
[8] = dose: 400.0 mg/kg/injection, schedule: Q01DX009 (ip), vehicle: saline
[9] = dose: 400.0 mg/kg/injection, schedule: Q04DX003 (ip), vehicle: saline
[10] = dose: 50.0 mg/kg/injection, schedule: Q01DX001 (ip), vehicle: carboxymethylcellulose (CMC)
[11] = dose: 100.0 mg/kg/injection, schedule: Q01DX001 (ip), vehicle: carboxymethylcellulose (CMC)
[12] = dose: 100.0 mg/kg/injection, schedule: Q01DX009 (ip), vehicle: Klucel (hydroxypropylcellulose) (HPC)
[13] = dose: 200.0 mg/kg/injection, schedule: Q01DX001 (ip), vehicle: carboxymethylcellulose (CMC)
[14] = dose: 200.0 mg/kg/injection, schedule: Q01DX009 (ip), vehicle: Klucel (hydroxypropylcellulose) (HPC)
[15] = dose: 400.0 mg/kg/injection, schedule: Q01DX001 (ip), vehicle: carboxymethylcellulose (CMC)
[16] = dose: 400.0 mg/kg/injection, schedule: Q01DX009 (ip), vehicle: Klucel (hydroxypropylcellulose) (HPC)
[17] = dose: 100.0 mg/kg/injection, schedule: Q04DX003 (ip), vehicle: Klucel (hydroxypropylcellulose) (HPC)
[18] = dose: 200.0 mg/kg/injection, schedule: Q04DX003 (ip), vehicle: Klucel (hydroxypropylcellulose) (HPC)
[19] = dose: 400.0 mg/kg/injection, schedule: Q04DX003 (ip), vehicle: Klucel (hydroxypropylcellulose) (HPC)
[20] = dose: 100.0 mg/kg/injection, schedule: Q04DX002 (ip), vehicle: saline with Tween-80
[21] = dose: 200.0 mg/kg/injection, schedule: Q04DX002 (ip), vehicle: saline with Tween-80
[22] = dose: 75.0 mg/kg/injection, schedule: Q01DX001 (ip), vehicle: saline

Measured: T/C

CC1(C)CCN1Cc1ccccc1
inactive: dose: 12.0 mg/kg/injection, schedule: Q01DX001 (ip), vehicle: saline 98 % of control | dose: 12.0 mg/kg/injection, schedule: Q04DX003 (ip), vehicle: saline 95 % of control | dose: 12.5 mg/kg/injection, schedule: Q01DX009 (ip), vehicle: saline 95 % of control | dose: 25.0 mg/kg/injection, schedule: Q01DX001 (ip), vehicle: saline 100 % of control | dose: 25.0 mg/kg/injection, schedule: Q01DX009 (ip), vehicle: saline 101 % of control | [1] 101 % of control | [2] 96 % of control | [3] 123 % of control | dose: 50.0 mg/kg/injection, schedule: Q04DX003 (ip), vehicle: saline 96 % of control

Nc1ccc(C(=O)Nc2ccc(Nc3ccncc3)cc2)c([N+](=O)[O-])c1
inactive: [4] 97 % of control | [5] 100 % of control | [6] 104 % of control | [7] 96 % of control | [8] 106 % of control | [9] 100 % of control

COC(=O)NNC(=O)OC
inactive: [10] 89 % of control | [11] 94 % of control | [12] 97 % of control | [13] 97 % of control | [14] 100 % of control | [15] 103 % of control | [16] 103 % of control

O=[N+]([O-])c1cccc(S(=O)(=O)SC(Cl)(Cl)Cl)c1
inactive: [1] 96 % of control

COC(=O)C1=C(C(=O)OC)C(C(=O)OC)N2C=CC=CC2=C1C(=O)OC (centres undefined)
inactive: [10] 94 % of control | [11] 89 % of control | [13] 94 % of control

COS(=O)(=O)c1ccc[n+](C)c1
inactive: [2] 100 % of control | dose: 100.0 mg/kg/injection, schedule: Q01DX001 (ip), vehicle: saline 105 % of control | dose: 200.0 mg/kg/injection, schedule: Q01DX001 (ip), vehicle: saline 98 % of control | dose: 400.0 mg/kg/injection, schedule: Q01DX001 (ip), vehicle: saline 96 % of control

COC1=C(NC2CCCCC2)C(=O)C(OC)=C(NC2CCCCC2)C1=O
inactive: [10] 103 % of control | [11] 101 % of control | [12] 86 % of control | [17] 96 % of control | [13] 101 % of control | [14] 98 % of control | [18] 94 % of control | [15] 103 % of control | [16] 91 % of control | [19] 94 % of control

CC(C)P(CP(=S)(c1ccccc1)c1ccccc1)c1ccccc1 (centres undefined)
inactive: dose: 100.0 mg/kg/injection, schedule: Q04DX003 (ip), vehicle: carboxymethylcellulose (CMC) 98 % of control | dose: 200.0 mg/kg/injection, schedule: Q04DX003 (ip), vehicle: carboxymethylcellulose (CMC) 100 % of control | dose: 400.0 mg/kg/injection, schedule: Q04DX003 (ip), vehicle: carboxymethylcellulose (CMC) 93 % of control

Nc1nc(N)c2nc(CNCCc3ccccc3)cnc2n1
inactive: dose: 20.0 mg/kg/injection, schedule: Q01DX009 (ip), vehicle: Klucel (hydroxypropylcellulose) (HPC) 100 % of control | dose: 40.0 mg/kg/injection, schedule: Q01DX009 (ip), vehicle: Klucel (hydroxypropylcellulose) (HPC) 102 % of control

c1ccc(Cn2nnc(-c3ccccc3)n2)cc1
inactive: [5] 97 % of control | [7] 94 % of control | [9] 89 % of control

N#Cc1ccc(N=S=O)cc1
inactive: [20] 105 % of control | [21] 112 % of control

CCC(CCl)NC1CCCCC1 (centres undefined)
inactive: [22] 106 % of control | dose: 150.0 mg/kg/injection, schedule: Q01DX001 (ip), vehicle: saline 106 % of control

CC1(C)N=C(N)N=C(N)N1c1ccc(OCC(=O)Nc2ccc(S(=O)(=O)F)cc2)c(Cl)c1
inactive: dose: 50.0 mg/kg/injection, schedule: Q01DX009 (ip), vehicle: carboxymethylcellulose (CMC) 106 % of control and 117 % of control | [3] 109 % of control | dose: 100.0 mg/kg/injection, schedule: Q01DX009 (ip), vehicle: carboxymethylcellulose (CMC) 114 % of control | dose: 400.0 mg/kg/injection, schedule: Q01DX009 (ip), vehicle: carboxymethylcellulose (CMC) 94 % of control | [8] 109 % of control

O=C1OC(c2ccc([N+](=O)[O-])cc2)=N/C1=C\c1cccc([N+](=O)[O-])c1
inactive: dose: 100.0 mg/kg/injection, schedule: Q01DX009 (ip), vehicle: other 96 % of control | dose: 200.0 mg/kg/injection, schedule: Q01DX009 (ip), vehicle: other 100 % of control | dose: 400.0 mg/kg/injection, schedule: Q01DX009 (ip), vehicle: other 106 % of control

Cc1cccc(OC(=O)NC2CCCCC2)c1
inactive: [12] 118 % of control | [17] 102 % of control | [14] 114 % of control | [18] 95 % of control | [16] 106 % of control | [19] 96 % of control

O=C(O)c1ccc(-c2c3ccc(=O)cc-3oc3cc(O)ccc23)c(C(=O)O)c1
inactive: [5] 97 % of control | [7] 105 % of control | [9] 97 % of control

N#C/C(=C/c1c(Cl)cccc1Cl)C(N)=O
inactive: [22] 93 % of control

COc1cc(Cn2cccc2/C=N/NC(N)=S)cc(OC)c1
inactive: dose: 25.0 mg/kg/injection, schedule: Q04DX002 (ip), vehicle: Klucel (hydroxypropylcellulose) (HPC) 105 % of control | dose: 50.0 mg/kg/injection, schedule: Q04DX002 (ip), vehicle: Klucel (hydroxypropylcellulose) (HPC) 111 % of control | dose: 100.0 mg/kg/injection, schedule: Q04DX002 (ip), vehicle: Klucel (hydroxypropylcellulose) (HPC) 111 % of control

CCCNCC1OC(OC)C2OC(C)(C)OC12 (centres undefined)
inactive: dose: 0.78 mg/kg/injection, schedule: Q01DX009 (ip), vehicle: saline 100 % of control | dose: 1.56 mg/kg/injection, schedule: Q01DX009 (ip), vehicle: saline 96 % of control | dose: 3.12 mg/kg/injection, schedule: Q01DX009 (ip), vehicle: saline 98 % of control | dose: 100.0 mg/kg/injection, schedule: Q01DX005 (ip), vehicle: saline 99 % of control | [4] 88 % of control | dose: 200.0 mg/kg/injection, schedule: Q01DX005 (ip), vehicle: saline 106 % of control | [6] 91 % of control

COc1cccc(NC(=O)NCc2ccco2)c1
inactive: [12] 106 % of control | [14] 108 % of control | [16] 103 % of control

CN(C)c1ccc(/C=N\N=C/c2ccc(N(C)C)cc2)cc1
inactive: dose: 50.0 mg/kg/injection, schedule: Q01DX009 (ip), vehicle: Klucel (hydroxypropylcellulose) (HPC) 97 % of control | [12] 93 % of control | [14] 103 % of control

CC(C)(C)C(=O)[CH-]C(=O)C(C)(C)C.CC(C)(C)C(=O)[CH-]C(=O)C(C)(C)C.CC(C)(C)C(=O)[CH-]C(=O)C(C)(C)C.CN(C)C=O.[Er+3]
inactive: [20] 105 % of control | [21] 94 % of control | dose: 400.0 mg/kg/injection, schedule: Q04DX002 (ip), vehicle: saline with Tween-80 94 % of control
